PMC6335953, “Triggering the expression of a silent gene cluster from genetically intractable bacteria results in scleric acid discovery” (Chemical Science, 2018)
pIC50: −log10 of the molar value.

Legend:
[1] = system: T1, Klebsiella pneumoniae ATCC 700603; test: microbe, parasite or virus in culture; parameters: CLSI broth microdilution MIC in 96-well plates, cation-adjusted Mueller-Hinton broth; conditions: ATCC700603
T1 construct: ATCC 700603
Method: (§1) The susceptibility of bacterial strains was investigated in collaboration with the Warwick Antimicrobial Screening Facility in a 96-well plate experiment, according to the Clinical & Laboratory Standards Institute (CLSI) guidelines (M7-A9 2012). Scleric acid was diluted to a concentration of 7.5 mg mL^–1 in 25% DMSO in distilled water. […] This was then further doubling diluted throughout the MIC. Meropenem and cefoxitin were used as positive controls during MIC testing. The antimicrobial activity of scleric acid was assessed. Inhibitory activity against representatives of the ESKAPE panel of pathogens: Enterococcus faecium, Staphylococcus aureus, Klebsiella pneumoniae, Acinetobacter baumannii, Pseudomonas aeruginosa, and Enterobacter cloacae was first screened but all strains appeared to be resistant to scleric acid, giving no observable MIC (ESI Table S6 ^†).

[2] = system: T2, Enterobacter cloacae NCTC 13405; test: microbe, parasite or virus in culture; parameters: CLSI broth microdilution MIC in 96-well plates, cation-adjusted Mueller-Hinton broth; conditions: NCTC13405
T2 construct: NCTC 13405
Method: as §1

[3] = system: T3, Acinetobacter baumanii ATCC 19606; test: microbe, parasite or virus in culture; parameters: CLSI broth microdilution MIC in 96-well plates, cation-adjusted Mueller-Hinton broth; conditions: Acinetobacter baumannii, ATCC19606
T3 construct: ATCC 19606
Method: as §1

[4] = system: T4, Enterococcus faecium ATCC 12202; test: microbe, parasite or virus in culture; parameters: CLSI broth microdilution MIC in 96-well plates, cation-adjusted Mueller-Hinton broth; conditions: ATCC12202
T4 construct: ATCC 12202
Method: as §1

[5] = system: T5, Pseudomonas aeruginosa ATCC 27853; test: microbe, parasite or virus in culture; parameters: CLSI broth microdilution MIC in 96-well plates, cation-adjusted Mueller-Hinton broth; conditions: ATCC27853
T5 construct: ATCC 27853
Method: as §1

[6] = system: T6, Staphylococcus aureus USA300; test: microbe, parasite or virus in culture; parameters: CLSI broth microdilution MIC in 96-well plates, cation-adjusted Mueller-Hinton broth
T6 construct: USA300 (ATCC BAA-1717)
Method: as §1

[7] = target: T7, nicotinamide N-methyltransferase (NNMT) (Homo sapiens, UniProt P40261); test: NNMT concentration-response assay (MNAN and SAH product readouts), Eli Lilly OIDD; enzyme source not stated in main text; format: biochemical
T7 sequence (P40261 1-264): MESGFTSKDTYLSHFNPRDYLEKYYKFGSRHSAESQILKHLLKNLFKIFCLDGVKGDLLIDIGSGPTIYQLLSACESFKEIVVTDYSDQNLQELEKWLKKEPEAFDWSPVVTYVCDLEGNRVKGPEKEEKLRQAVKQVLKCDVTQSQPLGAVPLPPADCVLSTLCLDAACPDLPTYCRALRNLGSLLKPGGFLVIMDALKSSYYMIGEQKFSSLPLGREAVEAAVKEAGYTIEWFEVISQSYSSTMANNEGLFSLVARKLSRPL

O=C(OCC(=O)N1CCC[C@H]1C(=O)O)c1ccccc1 [compound 2, (2-(benzoyloxy)acetyl)-L-proline]
MIC [1]: > 1020 µg/mL | MIC [2]: > 1020 µg/mL | MIC [3]: > 1020 µg/mL | MIC [4]: > 1020 µg/mL | MIC [5]: > 1020 µg/mL | MIC [6]: > 1020 µg/mL | pIC50 [7]: 3.75
